GI50 and TGI data for 11 compounds are collected here from PubChem BioAssay (NCI).

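48-hour exposure; five concentrations; linearly interpolated endpoints. GI50 = concentration required for 50% inhibition of growth. TGI denotes the concentration required for complete inhibition of growth.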

Among the test systems are SW-620 colon; HCC-2998 colon; TK-10 renal; CAKI-1 renal; SF-295 CNS; MDA-MB-435; HL-60(TB) leukemia; A498 renal; MCF7 breast; MOLT-4 leukemia.
Holding throughout (test): DTP human tumour cell line panel, 48 h

Usually GI50 stands for the concentration at which growth is held to half of that of the control. As usually defined, the TGI is the concentration giving total growth inhibition. A low value points to greater sensitivity of the cells. Turning to `FC(F)(F)c1ccc(Nc2nc(-c3c(C(F)(F)F)nc4ccccn34)cs2)cc1`, the 50% growth inhibitory concentration (GI50) was 37.3 nM in the assay with SW-620 colon; 0.18 µM with HCC-2998 colon; 0.917 µM in the assay with TK-10 renal; 41.9 nM in the assay with CAKI-1 renal; 0.033 µM in the assay with SF-295 CNS; 16.1 nM in the assay with MDA-MB-435. Besides, the GI50 with HL-60(TB) leukemia was 40.6 nM; in the assay on A498 renal, 0.0268 µM; in the assay on MCF7 breast, 34.1 nM; in the assay on MOLT-4 leukemia, 146 nM. For the same compound, the total growth inhibition concentration (TGI) amounted to 12.3 µM with SW-620 colon; 9.74 µM in the assay with HCC-2998 colon; 8.12 µM in the assay on TK-10 renal; 8.2 µM in the assay on CAKI-1 renal; 1.28 µM in the assay on SF-295 CNS; 0.0473 µM with MDA-MB-435. Moreover, the TGI was 2.25 µM in the assay on HL-60(TB) leukemia, 0.193 µM in the assay on A498 renal, 5.43 µM in the assay on MCF7 breast and over 28.7 µM in the assay on MOLT-4 leukemia.

Take `COc1ccc(C2=CC(c3ccc4c(c3)OCO4)c3c(c4ccccc4oc3=O)O2)cc1OC` (centres undefined): the TGI in the assay with SW-620 colon is over 100 µM; with HCC-2998 colon, over 27.2 µM; in the assay with TK-10 renal it was over 100 µM; with CAKI-1 renal, over 100 µM; with SF-295 CNS it was over 100 µM; in the assay with MDA-MB-435, 9.25 µM. Also, the total growth inhibition concentration (TGI) was 1.67 µM with HL-60(TB) leukemia, over 100 µM in the assay with A498 renal, over 100 µM with MCF7 breast and over 100 µM with MOLT-4 leukemia.

Regarding `COc1cc(CSc2nc3ccc(C)cc3c(=O)n2-c2ccccc2)cc(OC)c1OC`, the GI50 in the assay with SW-620 colon is 910 nM; in the assay on HCC-2998 colon it was 5.49 µM; in the assay with TK-10 renal, 8.1 µM; in the assay with CAKI-1 renal, 2790 nM; in the assay on SF-295 CNS, 2.41 µM; with MDA-MB-435, 269 nM. Also, the GI50 with HL-60(TB) leukemia was 1720 nM; in the assay with A498 renal, 1.92 µM; with MCF7 breast, 548 nM; in the assay on MOLT-4 leukemia, 3850 nM. In addition, the total growth inhibition concentration (TGI) with SW-620 colon was over 100 µM; in the assay with HCC-2998 colon, over 100 µM; in the assay with TK-10 renal, over 100 µM; in the assay on CAKI-1 renal, over 100 µM; in the assay on SF-295 CNS, 48 µM; in the assay on MDA-MB-435 it was 0.896 µM. In addition, the TGI in the assay on HL-60(TB) leukemia is over 100 µM; with A498 renal, 9.15 µM; with MCF7 breast, over 100 µM; with MOLT-4 leukemia, over 100 µM.

In the case of `Cc1nn2c(/C=C3\C(=O)Nc4ccc(Cl)cc43)c(C)nc2s1`, the GI50 with SW-620 colon is 23400 nM; with HCC-2998 colon it was 26.2 µM; in the assay with TK-10 renal, over 100 µM; in the assay with CAKI-1 renal, 26000 nM; in the assay on SF-295 CNS, 16.7 µM; with MDA-MB-435 it was 3400 nM. The GI50 in the assay on HL-60(TB) leukemia is 13500 nM; in the assay on A498 renal it was 46 µM; in the assay with MCF7 breast, 15600 nM; in the assay with MOLT-4 leukemia, 35600 nM. In addition, the TGI with SW-620 colon was over 100 µM; in the assay on HCC-2998 colon, over 100 µM; in the assay with TK-10 renal, over 100 µM; in the assay with CAKI-1 renal it was over 100 µM; with SF-295 CNS it was over 100 µM; in the assay with MDA-MB-435, 26.7 µM. Also, the TGI was 43.4 µM in the assay on HL-60(TB) leukemia, over 100 µM with A498 renal, over 100 µM with MCF7 breast and over 100 µM in the assay on MOLT-4 leukemia.

Regarding `C=C1CCC2C3(C)COC(c4ccc(N(C)C)cc4)OC3CCC2(C)C1C/C=C1/C(=O)OCC1O` (centres undefined), the GI50 in the assay with SW-620 colon is 1950 nM; in the assay on HCC-2998 colon, 7.69 µM; with TK-10 renal, 8 µM; with CAKI-1 renal, 2120 nM; with SF-295 CNS, 6 µM; with MDA-MB-435, 2880 nM. In addition, the GI50 with HL-60(TB) leukemia was 1360 nM; in the assay with A498 renal, 6.25 µM; in the assay on MCF7 breast it was 2320 nM; in the assay on MOLT-4 leukemia it was 1970 nM. Also, the TGI with SW-620 colon amounted to 4.25 µM; with HCC-2998 colon, 19.8 µM; with TK-10 renal, 21 µM; in the assay on CAKI-1 renal it was 5.66 µM; in the assay with SF-295 CNS, 20 µM; in the assay with MDA-MB-435, 10.5 µM. The concentration for total growth inhibition (TGI) is 3.6 µM in the assay on HL-60(TB) leukemia, 17.1 µM in the assay on A498 renal, 13 µM with MCF7 breast and 5.68 µM with MOLT-4 leukemia.

As for `CC(C)(C)n1cc(-c2ccnc(NCCCNS(=O)(=O)c3ccc(C(F)(F)F)cc3)c2)c(-c2cccc(O)c2)n1`, the GI50 in the assay with SW-620 colon is 1890 nM; in the assay with HCC-2998 colon it was 1.82 µM; in the assay with TK-10 renal it was 2.31 µM; in the assay with CAKI-1 renal, 1990 nM; with SF-295 CNS it was 1.69 µM; with MDA-MB-435, 1810 nM. Besides, the GI50 with HL-60(TB) leukemia is 2810 nM; with A498 renal, 1.54 µM; in the assay on MCF7 breast, 1780 nM; in the assay with MOLT-4 leukemia it was 2330 nM. Also, the TGI in the assay on SW-620 colon was 3.71 µM; with HCC-2998 colon, 3.25 µM; with TK-10 renal, 5.28 µM; in the assay with CAKI-1 renal, 4.21 µM; with SF-295 CNS, 3.12 µM; with MDA-MB-435, 3.35 µM. Further, the TGI with HL-60(TB) leukemia came out at 7.74 µM; in the assay with A498 renal, 4.2 µM; with MCF7 breast it was 3.63 µM; in the assay on MOLT-4 leukemia, 6.92 µM.

As for `O=C(O)CNC(=O)c1ccc(-c2ccccc2)cc1`, the TGI in the assay on SW-620 colon, with HCC-2998 colon, in the assay on TK-10 renal, in the assay with CAKI-1 renal, in the assay on SF-295 CNS and in the assay with MDA-MB-435 was over 100 µM each time. Further, the TGI in the assay on HL-60(TB) leukemia, in the assay on A498 renal, with MCF7 breast and with MOLT-4 leukemia was over 100 µM each time.

In the case of `C=C(C)C(=O)O[C@H]1CC(=C)[C@@H]2C[C@H](O)[C@](O)(CCl)[C@@H]2[C@H]2OC(=O)C(=C)[C@@H]21`, the GI50 is 2080 nM in the assay with SW-620 colon; 17.6 µM in the assay on HCC-2998 colon; 0.512 µM with TK-10 renal; 1940 nM with CAKI-1 renal; 12.3 µM with SF-295 CNS; 1990 nM in the assay with MDA-MB-435. Also, the GI50 is 1970 nM in the assay on HL-60(TB) leukemia, 12.8 µM in the assay on A498 renal, 1600 nM in the assay with MCF7 breast and 1440 nM in the assay on MOLT-4 leukemia. For the same compound, the TGI in the assay on SW-620 colon stood at 4.57 µM; in the assay on HCC-2998 colon, 32.4 µM; in the assay with TK-10 renal it was 1.82 µM; in the assay on CAKI-1 renal, 3.45 µM; with SF-295 CNS it was 26.4 µM; with MDA-MB-435 it was 3.77 µM. Further, the TGI is 4.19 µM with HL-60(TB) leukemia, 26.7 µM in the assay with A498 renal, 4.04 µM in the assay with MCF7 breast and 3.84 µM in the assay with MOLT-4 leukemia.

For `COc1ccc(C(=O)c2cc(OC)c(OC)c(OC)c2)cc1OC(=O)CCl`, the GI50 with SW-620 colon is under 20.8 nM; in the assay with HCC-2998 colon it was 0.0393 µM; with TK-10 renal, 19.4 µM; in the assay on CAKI-1 renal it was 151 nM; in the assay on SF-295 CNS, 0.0456 µM; in the assay with MDA-MB-435 it was under 10 nM. Also, the 50% growth inhibitory concentration (GI50) in the assay with HL-60(TB) leukemia is under 15.2 nM; with A498 renal, 2.07 µM; in the assay on MCF7 breast, 24.9 nM; with MOLT-4 leukemia it was under 20.9 nM. Also, the total growth inhibition concentration (TGI) in the assay with SW-620 colon was over 100 µM; with HCC-2998 colon it was over 100 µM; in the assay on TK-10 renal, over 100 µM; in the assay on CAKI-1 renal, over 100 µM; with SF-295 CNS, over 100 µM; with HL-60(TB) leukemia, under 0.025 µM. In addition, the figures for the total growth inhibition concentration (TGI) in the assay on A498 renal, with MCF7 breast and in the assay with MOLT-4 leukemia were 7.01 µM, over 100 µM and over 100 µM, respectively.

Take `CC(C)[C@H](N)C(=O)N1CCC[C@H]1B(O)O`: the GI50 in the assay on SW-620 colon was over 100000 nM; with HCC-2998 colon it was over 100 µM; in the assay with TK-10 renal it was over 100 µM; in the assay with CAKI-1 renal it was over 100000 nM; in the assay with SF-295 CNS, over 100 µM; in the assay with MDA-MB-435, over 100000 nM. Moreover, the GI50 is over 100000 nM in the assay with HL-60(TB) leukemia, over 100 µM with A498 renal, over 100000 nM in the assay with MCF7 breast and over 100000 nM with MOLT-4 leukemia. For the same compound, the concentration for total growth inhibition (TGI) in the assay with SW-620 colon, in the assay on HCC-2998 colon, in the assay with TK-10 renal, in the assay on CAKI-1 renal, in the assay with SF-295 CNS and with MDA-MB-435 was over 100 µM each time. The TGI in the assay on HL-60(TB) leukemia, with A498 renal, in the assay on MCF7 breast and in the assay with MOLT-4 leukemia was over 100 µM throughout.

Take `C=C1C(=O)O[C@H]2[C@H]1CC/C(COC(=O)NCc1ccc(Cn3c(=O)sn(CCCl)c3=O)cc1)=C\CC[C@@]1(C)O[C@@H]21`: the GI50 in the assay with SW-620 colon is 1170 nM; with HCC-2998 colon, 17.3 µM; with TK-10 renal it was 1.77 µM; in the assay on CAKI-1 renal, 1760 nM; in the assay with SF-295 CNS, 16.4 µM; in the assay with MDA-MB-435, 1740 nM. For the same compound, the GI50 was 1920 nM in the assay on HL-60(TB) leukemia, 11.5 µM with A498 renal, 1910 nM with MCF7 breast and 1850 nM in the assay with MOLT-4 leukemia. In addition, the total growth inhibition concentration (TGI) in the assay on SW-620 colon turned out to be 2.69 µM; in the assay on HCC-2998 colon, 33 µM; with TK-10 renal it was 3.43 µM; in the assay on CAKI-1 renal it was 3.71 µM; with SF-295 CNS, 30.3 µM; in the assay with MDA-MB-435, 3.47 µM. Also, the TGI with HL-60(TB) leukemia stood at 4.96 µM; with A498 renal it was 23.8 µM; with MCF7 breast it was 4.4 µM; in the assay with MOLT-4 leukemia, 5.92 µM.
